Assay results from US9701664B2, “Fused 1,4-dihydrodioxin derivatives as inhibitors of heat shock transcription factor 1” (Cancer Research Technology Limited, priority 2013, dated 2017).

System: HSP72 in U2OS cells
Experiment: Cell-based ELISA (Cellisa) assay, U2OS cells: inhibition of 17-AAG-induced HSP72
Details: U2OS cells (Examples 1-168)
Description: U2OS cells (5-8×10^4 cells/mL) or SK-OV-3 cells (5-8×10^4 cells/mL) were seeded into 96-well plates and incubated at 37° C. for 48 h. Compounds were then added at a range of concentrations and incubated for 1 h before addition of 17-AAG (250 nM). Cells were then incubated for 18 h. The medium was removed washed 2× with PBS and cells were then fixed with fixing solution (4% paraformaldehyde, 0.3% TritonX-100 in PBS) for 30 min at 4° C. The plates were then washed 2× with PBS before blocking with 5% milk for 30 min at 37° C. After washing the plates 4× with 0.1% Tween-20/deionised water, HSP72 antibody (SPA-810, Enzo Life) was added for 1.5 h at 37° C. Following 4× washes, the plates were incubated with europium-labelled anti-mouse antibody (0.6 ug/ml) in Delfia assay buffer (Perkin Elmer) for 1 h at 37° C. After washing the plates, Delfia enhancement solution was added, shaken for 10 min before reading in the Envision plate reader (Perkin-Elmer) with excitation at 340 nm and emission at 615 nm. The plates were washed again before protein determination using the bicinchoninic acid assay (BCA assay, Pierce Biotechnology). The europium counts were normalised for the amount of protein in each well. The 50% inhibitory concentration value of the compound was then calculated.

Molecule | IC50 (Homo sapiens) | IC50
CCC(=O)NCCNc1ccc2cc(C(=O)Nc3cc(NC(=O)c4ccc5c(c4)OCCO5)ccc3C)ccc2n1 [Example 83, N-(5-(2,3-dihydrobenzo[b][1,4]dioxine-6-carboxamido)-2-methylphenyl)-2-((2-propionamidoethyl)amino)quinoline-6-carboxamide] | 0.161 µM | 
Cc1ccc(NC(=O)c2ccc3c(c2)OCCO3)cc1NC(=O)c1ccc(-c2ccccc2)nc1 [Example 37, N-(5-(2,3-dihydrobenzo[b][1,4]dioxine-6-carboxamido)-2-methylphenyl)-6-phenylnicotinamide] | 1.96 µM | 
Cc1ccc(NC(=O)c2ccc3c(c2)OCCO3)cc1NC(=O)c1ccc2c(c1)CC[C@@H](C)N2 [Example 155, (R)—N-(5-(2,3-dihydrobenzo[b][1,4]dioxine-6-carboxamido)-2-methylphenyl)-2-methyl-1,2,3,4-tetrahydroquinoline-6-carboxamide] | 0.227 µM | 
CCNc1ccc(C(=O)Nc2cc(NC(=O)c3ccc4c(c3)OCCO4)ccc2C)cn1 [Example 102, N-(5-(2,3-dihydrobenzo[b][1,4]dioxine-6-carboxamido)-2-methylphenyl)-6-(ethylamino)nicotinamide] | 0.835 µM | 
COc1cccc(C(=O)Nc2cc(NC(=O)c3ccc4c(c3)OCCO4)ccc2C)c1 [Example 40, N-(3-(3-methoxybenzamido)-4-methylphenyl)-2,3-dihydrobenzo[b][1,4]dioxine-6-carboxamide] | 1.16 µM | 
Cc1ccc2cc(C(=O)Nc3cc(NC(=O)c4cc5c(cc4F)OCCO5)ccc3C)ccc2n1 [Example 130, N-(5-(7-fluoro-2,3-dihydrobenzo[b][1,4]dioxine-6-carboxamido)-2-methylphenyl)-2-methylquinoline-6-carboxamide] | 0.156 µM | 
Cc1ccc(NC(=O)c2ccc3c(c2)OCCO3)cc1NC(=O)c1ccc2ncccc2c1 [Example 1, N-(5-(2,3-dihydrobenzo[b][1,4]dioxine-6-carboxamido)-2-methylphenyl)quinoline-6-carboxamide] | 0.005 µM | 
Cc1ccc(NC(=O)c2ccc3c(c2)OCCO3)cc1NC(=O)c1ccc2c(c1)CCCCN2 [Example 82, N-(5-(2,3-dihydrobenzo[b][1,4]dioxine-6-carboxamido)-2-methylphenyl)-2,3,4,5-tetrahydro-1H-benzo[b]azepine-7-carboxamide] | 0.156 µM | 
Cc1cc(NCCN2CCOCC2)c2cc(C(=O)Nc3cc(NC(=O)c4ccc5c(c4)OCCO5)ccc3C)ccc2n1 [Example 118, N-(5-(2,3-dihydrobenzo[b][1,4]dioxine-6-carboxamido)-2-methylphenyl)-2-methyl-4-(2-morpholinoethylamino)quinoline-6-carboxamide] | 0.618 µM | 
Cc1ccc(NC(=O)c2ccc3c(c2)OCCO3)cc1NC(=O)c1cnc2cccc(CCO)c2c1 [Example 157, N-(5-(2,3-dihydrobenzo[b][1,4]dioxine-6-carboxamido)-2-methylphenyl)-5-(2-hydroxyethyl)quinoline-3-carboxamide] | 0.221 µM | 
Cc1ccc(NC(=O)c2ccc3c(c2)OCCO3)cc1NC(=O)c1ccc(Nc2cccc(I)c2)nc1 [Example 38, N-(5-(2,3-dihydrobenzo[b][1,4]dioxine-6-carboxamido)-2-methylphenyl)-6-((3-iodophenyl)amino)nicotinamide] | 0.041 µM | 
COCCOc1cc(C(=O)Nc2cc(NC(=O)c3ccc4c(c3)OCCO4)ccc2C)cc2cccnc12 [Example 160, N-(5-(2,3-dihydrobenzo[b][1,4]dioxine-6-carboxamido)-2-methylphenyl)-8-(2-methoxyethoxy)quinoline-6-carboxamide] | 0.383 µM | 
Cc1ccc(NC(=O)c2ccc3c(c2)OCCO3)cc1NC(=O)c1ccc2c(c1)CCNC2 [Example 88, N-(5-(2,3-dihydrobenzo[b][1,4]dioxine-6-carboxamido)-2-methylphenyl)-1,2,3,4-tetrahydroisoquinoline-6-carboxamide] | 0.77 µM | 
Cc1ccc(NC(=O)c2ccc3c(c2)OCCO3)cc1NC(=O)c1ccc2nc(C(C)O)ccc2c1 (stereo not drawn) [Example 142, N-(5-(2,3-dihydrobenzo[b][1,4]dioxine-6-carboxamido)-2-methylphenyl)-2-(1-hydroxyethyl)quinoline-6-carboxamide] | 0.051 µM | 
COC(C)c1ccc2cc(C(=O)Nc3cc(NC(=O)c4ccc5c(c4)OCCO5)ccc3C)ccc2n1 (stereo not drawn) [Example 153, N-(5-(2,3-dihydrobenzo[b][1,4]dioxine-6-carboxamido)-2-methylphenyl)-2-(1-methoxyethyl)quinoline-6-carboxamide] | 0.14 µM | 
Cc1ccc(NC(=O)c2ccc3c(c2)OCCO3)cc1NC(=O)c1ccnc(N2CCOCC2)c1 [Example 98, N-(5-(2,3-dihydrobenzo[b][1,4]dioxine-6-carboxamido)-2-methylphenyl)-2-morpholinoisonicotinamide] | 2.66 µM | 
Cc1ccc(NC(=O)c2ccc3c(c2)OCCO3)cc1NC(=O)c1ccc2c(c1)CCN2C(=O)OC(C)(C)C [Example 30, tert-butyl 5-((5-(2,3-dihydrobenzo[b][1,4]dioxine-6-carboxamido)-2-methylphenyl)carbamoyl)indoline-1-carboxylate] | 0.507 µM | 
COCCOc1cc(OC)c2cc(C(=O)Nc3cc(NC(=O)c4ccc5c(c4)OCCO5)ccc3C)ccc2n1 [Example 22, N-(5-(2,3-dihydrobenzo[b][1,4]dioxine-6-carboxamido)-2-methylphenyl)-4-methoxy-2-(2-methoxyethoxy)quinoline-6-carboxamide] | 0.16 µM | 
Cc1cc(NCCN2CCCC2)c2cc(C(=O)Nc3cc(NC(=O)c4ccc5c(c4)OCCO5)ccc3C)ccc2n1 [Example 117, N-(5-(2,3-dihydrobenzo[b][1,4]dioxine-6-carboxamido)-2-methylphenyl)-2-methyl-4-(2-(pyrrolidin-1-yl)ethylamino)quinoline-6-carboxamide] | 0.635 µM | 
CNCC1CCc2cc(C(=O)Nc3cc(NC(=O)c4ccc5c(c4)OCCO5)ccc3C)ccc2N1 (stereo not drawn) [Example 86, N-(5-(2,3-dihydrobenzo[b][1,4]dioxine-6-carboxamido)-2-methylphenyl)-2-((methylamino)methyl)-1,2,3,4-tetrahydroquinoline-6-carboxamide] | 0.195 µM | 
Cc1ccc(NC(=O)c2ccc3c(c2)OCCO3)cc1NC(=O)c1ccc2nc(Cl)ccc2c1 [Example 12, 2-chloro-N-(5-(2,3-dihydrobenzo[b][1,4]dioxine-6-carboxamido)-2-methylphenyl)quinoline-6-carboxamide] | 0.051 µM | 
Cc1ccc(NC(=O)c2ccc3c(c2)OCCO3)cc1NC(=O)c1ccc2c(c1)CC[C@H](C)N2 [Example 154, (S)—N-(5-(2,3-dihydrobenzo[b][1,4]dioxine-6-carboxamido)-2-methylphenyl)-2-methyl-1,2,3,4-tetrahydroquinoline-6-carboxamide] | 0.145 µM | 
Cc1ccc(NC(=O)c2ccc3c(c2)OCCO3)cc1NC(=O)c1ccc2c(c1)CCC(CN(C)C(=O)OC(C)(C)C)N2 (stereo not drawn) [Example 85, tert-butyl ((6-((5-(2,3-dihydrobenzo[b][1,4]dioxine-6-carboxamido)-2-methylphenyl)carbamoyl)-1,2,3,4-tetrahydroquinolin-2-yl)methyl)(methyl)carbamate] | 1.14 µM | 
Cc1ccc(NC(=O)c2ccc3c(c2)OCCO3)cc1NC(=O)c1ccc2c(c1)CCN(C(=O)OC(C)(C)C)C2 [Example 31, tert-butyl 6-((5-(2,3-dihydrobenzo[b][1,4]dioxine-6-carboxamido)-2-methylphenyl)carbamoyl)-3,4-dihydroisoquinoline-2(1H)-carboxylate] | 0.545 µM | 
CCC(=O)NCCOc1ccc2cc(C(=O)Nc3cc(NC(=O)c4ccc5c(c4)OCCO5)ccc3C)ccc2n1 [Example 81, N-(5-(2,3-dihydrobenzo[b][1,4]dioxine-6-carboxamido)-2-methylphenyl)-2-(2-propionamidoethoxy)quinoline-6-carboxamide] | 0.1 µM | 
N-(5-(2,3-dihydrobenzo[b][1,4]dioxine-6-carboxamido)-2-methyl)phenyl)-2-methyl-4-(2-(pyrrolidin-1-yl)ethoxy)quinoline-6-carboxamide [Example 120] |  | 2.73 µM
Cc1ccc(NC(=O)c2ccc3c(c2)OCCO3)cc1NC(=O)c1ccc2c(ccc[n+]2[O-])c1 [Example 23, 6-((5-(2,3-dihydrobenzo[b][1,4]dioxine-6-carboxamido)-2-methylphenyl)carbamoyl)quinoline 1-oxide] | 0.161 µM | 
Cc1cc(NCCCN(C)C)c2cc(C(=O)Nc3cc(NC(=O)c4ccc5c(c4)OCCO5)ccc3C)ccc2n1 [Example 111, N-(5-(2,3-dihydrobenzo[b][1,4]dioxine-6-carboxamido)-2-methylphenyl)-4-(3-(dimethylamino)propylamino)-2-methylquinoline-6-carboxamide] | 1.84 µM | 
Cc1ccc(NC(=O)c2ccc3c(c2)OCCO3)cc1NC(=O)c1ccc(Nc2ccccc2)nc1 [Example 94, N-(5-(2,3-dihydrobenzo[b][1,4]dioxine-6-carboxamido)-2-methylphenyl)-6-(phenylamino)nicotinamide] | 0.073 µM | 
Cc1ccc(NC(=O)c2ccc3c(c2)OCCO3)cc1NC(=O)c1ccc2c(c1)CCC(C)N2C (stereo not drawn) [Example 159, N-(5-(2,3-dihydrobenzo[b][1,4]dioxine-6-carboxamido)-2-methylphenyl)-1,2-dimethyl-1,2,3,4-tetrahydroquinoline-6-carboxamide] | 0.345 µM | 
